In PubChem BioAssay (NCI) one finds TGI and GI50 data, which are given here for 41 molecules.

Several values for one entry are separate records, joined by “and”; a condition that tells them apart may be missing. Equal entries are not always repeated.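 All cell lines were grown in 96-well plates and treated with compound for 48 hours. GI50 is the concentration that inhibits growth by half. TGI: total growth inhibition.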

What all share (experiment): NCI tumour cell line growth inhibition, 48 h
Test [1] deals with DLD-1 colon.
In test [2] the test system is DMS 114 small cell lung.
Test [3] has as its system HOP-18 NSCLC.
Test [4] has as its system KM20L2 colon.
The subject of test [5] is SNB-78 CNS.
The subject of test [6] is M19-MEL melanoma.
Test [7] concerns RXF-631 renal.
In test [8] the test system is XF 498 CNS.
The subject of test [9] is MDA-N.
Test [10] has as its system P388/ADR leukemia.
The subject of test [11] is SN12K1 renal.

`CCOc1ccc2c(c1)[n+]([O-])c(-c1ccc(Cl)cc1)c(N)[n+]2[O-]`: the TGI in [1], in test [2], in [3], in [4] and in [5] was more than 100 µM each time.

As for `COc1ccc(Br)c(N/N=C2\CCCNC2=O)c1`, the TGI in [1], in test [2], in test [3], in [4], in test [6] and in [7] was more than 100 µM in each case. Further, the TGI in test [5] and in test [8] was more than 100 µM throughout.

Turning to `CCN(CC)c1c(C(=O)/C=C/c2ccc(OC)cc2)c(-c2ccccc2)nn(C)c1=O`, the TGI in test [1] is 71.3 µM; in test [2] it was 32.3 µM; in test [3], 51.7 µM; in test [4] it was 33.1 µM; in [6] it was more than 100 µM; in test [7], more than 100 µM. Besides, the TGI in test [5] is more than 100 µM.

On to `CCOC(=O)N1CCN(C=S)CC1`, for which the TGI in [1], in [2], in [3], in test [4], in [6] and in test [7] was more than 100 µM in each case. For the same molecule, the TGI in test [5] is more than 100 µM.

Regarding `O=[N+]([O-])c1cc(C(F)(F)F)cc([N+](=O)[O-])c1CCl`, the TGI in [1] amounted to 4.65 µM; in test [2], 1.95 µM; in [3] it was 3.6 µM; in [4], 8.72 µM; in test [6], 3.64 µM; in test [7] it was 10.4 µM. The TGI in test [5] turned out to be 10.6 µM.

In the case of `O=C(O)C(SC(=S)c1ccc(C(=S)SC(C(=O)O)c2ccccc2)cc1)c1ccccc1` (stereo not drawn), the TGI in test [1], in test [2], in test [7], in [5] and in test [8] was more than 100 µM in each case.

With `CN1C(=Nc2ccccc2)SC1=Nc1ccccc1`, the TGI is more than 100 µM in test [1]; more than 100 µM in test [2]; more than 100 µM in test [3]; 65.2 µM in [6]; more than 100 µM in [5]; 73.3 µM in [8].

For the molecule `Cc1cc(=O)n(-c2ccccc2C)c(C)n1`, the TGI in test [1], in test [2], in test [3], in test [4], in test [6] and in test [7] was more than 100 µM throughout. Moreover, the TGI in test [5] was more than 100 µM.

As to `CCCCOC(=O)C1C2CCC(O2)C1C(=O)OCCCC` (stereo not drawn), the TGI in [1] is more than 87.5 µM; in test [2], more than 55.7 µM; in test [3] it was more than 100 µM; in test [4] it was more than 81.2 µM; in test [6], more than 100 µM; in test [5] it was more than 100 µM. This molecule also came in with a TGI in test [8] of more than 100 µM.

With `O=C1c2ccccc2C(O)(O)C1(O)C1(O)C(=O)c2ccccc2C1(O)O` (stereo not drawn), the TGI in test [9] stood at 48 µM.

Consider `CC(=O)CC(=O)OC1CC(C)CCC1C(C)C` (stereo not drawn), for which the TGI in [1], in test [2], in test [6], in test [7], in test [5] and in [8] was more than 100 µM in each case.

On to `CCC[CH2][Sn]1([CH2]CCC)[O]C(=O)c2cccnc2[O]1`, for which the GI50 in test [1] is 3.11 µM; in test [2], 1.95 µM; in [4], 3.96 µM; in [6], 4.26 µM; in test [7], 1.43 µM; in test [5], 2.07 µM. Moreover, the GI50 in test [8] was 1.38 µM. For the same molecule, the TGI came to 10.7 µM in [1]; 4.05 µM in test [2]; 11.9 µM in [4]; 15.3 µM in test [6]; 2.73 µM in [7]; 7.73 µM in test [5]. Further, the TGI in test [8] is 2.92 µM.

Turning to `COC(=O)/C(C)=C(/CCC1(C)OCCO1)O[Si](C)(C)C`, the TGI in test [1], in test [2], in test [3], in test [4], in test [6] and in [5] was more than 100 µM throughout. The TGI in test [8] was more than 100 µM.

Consider `CC1CCC(NC(=O)N(CCCl)N=O)CC1` (stereo not drawn), for which the GI50 is 22.3 µM in test [1]; 19 µM in [2]; 44.7 µM in test [4]; 53.1 µM in test [6]; 20.1 µM in [5]; 16.4 µM in [8]. Moreover, the TGI in test [1] is 47.7 µM and 79.4 µM; in test [2] it was 40.4 µM and 87.3 µM; in test [3], 62.8 µM; in test [4] it was 120 µM; in test [6], 98 µM; in test [9], 90.1 µM. The TGI is 56.8 µM in [10]; 67 µM in test [11]; 88.7 µM and 110 µM in test [5]; 43.5 µM and 81.2 µM in test [8].

In the case of `CCCCNc1nc(C#N)c(N)s1`, the TGI in test [1], in test [4], in [7], in [5] and in test [8] was more than 100 µM in each case.

In test [9], `Cc1ccc(S(=O)(=O)N/N=C/c2c(O)ccc3ccccc23)cc1` had a TGI of more than 100 µM.

Take `CN(C)CC/C(=N\Nc1ccc([N+](=O)[O-])cc1)c1ccccc1`: the TGI in [1] was 27.2 µM; in [2], 18 µM; in [3], 20.5 µM; in [4] it was 15.2 µM; in test [5], 20 µM.

With `COc1c(C)c2c(c(O)c1C/C=C(\C)CCC(=O)O)C(=O)OC2`, the TGI is more than 100 µM in test [1]; 78.3 µM in test [2]; more than 100 µM in [3]; more than 100 µM in test [6]; more than 100 µM in test [9].

`OC(c1ccccc1)(c1ccccc1)c1ccncc1`: the TGI in test [1], in test [2], in test [3], in [4], in [6] and in test [5] was more than 100 µM throughout. Besides, the TGI in test [8] is more than 100 µM.

`N#CC(NC12CC3CC(CC(C3)C1)C2)c1ccc2c(c1)OCO2` (stereo not drawn) came in with a TGI in test [9] of more than 100 µM.

For the molecule `COc1cc(OC(=O)c2ccccc2)cc2c1C(=O)C=CC2=O`, the TGI in [1] is 35.5 µM; in test [2], 30.2 µM; in test [3], 41.5 µM; in test [4] it was more than 100 µM; in [6], 25.9 µM; in [9], 18.8 µM. The TGI is 41.5 µM in test [7], 41.4 µM in test [5] and 31.4 µM in test [8].

Take `Oc1c(C(Nc2cccc3cccnc23)c2ccccc2)ccc2cccnc12` (stereo not drawn): the TGI is 15.6 µM in test [2], 93.2 µM in test [3], more than 100 µM in [4] and more than 100 µM in [6].

As to `COC1CC(OS(=O)(=O)c2ccc([N+](=O)[O-])cc2)C(OC(=O)c2ccccc2)C(C)O1` (stereo not drawn), the TGI in test [1], in test [3], in [4], in test [6], in test [7] and in test [5] was more than 100 µM in each case. The same molecule yielded a TGI in test [8] of more than 100 µM.

As to `COc1ccc2nc3cccc([N+](=O)[O-])c3c(NCCCCCC(=O)O)c2c1`, in test [9], the GI50 was 0.0263 µM and the TGI was found to be 0.117 µM.

Regarding `c1ccc2c(c1)cc(C1NCCc3[nH]cnc31)c1ccccc12` (stereo not drawn), the TGI in [1] was more than 100 µM; in [2], more than 64.3 µM; in test [3], more than 100 µM; in test [4] it was more than 100 µM; in [6], more than 59.5 µM; in [7], more than 100 µM. Also, the TGI in test [5] is more than 100 µM; in test [8], 79 µM.

As to `CC(C)C1CC[C@@H](C)C[C@@]1(O)CC(N)=O` (stereo partly drawn), the TGI in [1], in test [2], in test [3], in test [4], in test [6] and in [7] was more than 100 µM in each case. Further, the TGI in test [5] was more than 100 µM; in test [8], 0.856 µM.

Regarding `Clc1ccc(C2SCc3nc4ccccc4n32)c(Cl)c1` (stereo not drawn), the TGI came out at 30.3 µM in test [1]; 22.1 µM in [2]; 34.4 µM in test [3]; 36.3 µM in test [4]; 28.9 µM in test [6]; 33.6 µM in [8].

Turning to `O=C([CH-]C(=O)c1ccccc1)c1ccccc1.O=C([CH-]C(=O)c1ccccc1)c1ccccc1.[La+3].[OH-].[OH3+]`, in test [4], the GI50 is 22.4 µM and the TGI worked out at 68.7 µM.

For the molecule `Oc1ccccc1/C=C/c1csnn1`, the TGI in test [1], in test [2], in test [3], in test [4], in test [6] and in test [7] was more than 100 µM in each case. Moreover, the TGI in test [5] and in test [8] was more than 100 µM each time.

In the case of `CCOC(=O)NC(=O)c1cn(CCOC(=O)CCCCCCCCC(=O)OCCn2cc(C(=O)NC(=O)OCC)c(=O)[nH]c2=O)c(=O)[nH]c1=O`, the TGI in test [1], in test [2], in [3], in test [4], in test [6] and in test [7] was more than 100 µM throughout. The TGI in test [5] and in test [8] was more than 100 µM in each case.

As to `COc1cc(/C=C2/C(=O)N(C(=O)OCC(C)C)C(Cc3cc(OC)c(OC)c(C)c3OC)C(=O)N2Cc2ccccc2)c(OC)c(C)c1OC` (stereo not drawn), the TGI in test [1], in [2], in test [3], in test [4], in [6] and in test [7] was more than 100 µM each time.

Regarding `O=[N+]([O-])O.[Cu+2].[NH-]CC[NH-].[NH-]CC[NH-]`, in test [9], the GI50 was more than 10 µM and the TGI is more than 10 µM.

`O=C(O)CNC(=O)c1ccc(-c2ccccc2)cc1`: in test [9], the TGI was more than 100 µM.

On to `CC(=O)OCC1OC(n2cnc(C(N)=S)c2N)C(OC(C)=O)C1OC(C)=O` (stereo not drawn), for which the TGI in test [9] is more than 100 µM.

Molecule `CCC1C2Cc3ccc(O)cc3C1(CC)CCN2C` (stereo not drawn) displayed a TGI in [9] of more than 100 µM.

As to `CP1(=O)CCCCC1`, the TGI in [1], in test [2], in test [3], in test [4], in test [6] and in test [5] was more than 100 µM in each case. In test [8], this molecule showed a TGI of more than 100 µM.

On to `Cc1ccc(S(=O)(=O)OC2CSS(=O)CC2OS(=O)(=O)c2ccc(C)cc2)cc1` (stereo not drawn), for which the TGI was determined as 23.6 µM in [1]; 32.2 µM in test [2]; 37.6 µM in test [3]; 32.6 µM in [4]; 30.5 µM in test [6]; 30.4 µM in test [7]. For the same molecule, the TGI is 58.9 µM in [5] and 26.6 µM in [8].

As for `CCOc1ccccc1N1C(=O)C(=O)C(c2nc3ccccc3o2)C(=O)C1=O`, the TGI in [1], in test [2], in test [3], in test [4], in test [6] and in [7] was more than 100 µM in each case. This molecule yielded a TGI in test [5] of more than 100 µM.

In the case of `Nc1ccnc(=O)[nH]1`, the TGI in test [1], in test [2], in [3], in test [4], in test [6] and in test [7] was more than 100 µM throughout. Also, the TGI in test [5] and in [8] was more than 100 µM in each case.

Consider `Cc1ccc2nc(NC(=O)C(=O)C(C#N)c3nc4ccccc4s3)sc2c1` (stereo not drawn), for which the TGI in [2] is 70.1 µM; in [3], more than 100 µM; in [4] it was more than 100 µM; in test [6] it was more than 100 µM; in [7], more than 100 µM; in test [5], more than 100 µM. Besides, the TGI in test [8] is 63.9 µM.

With `COC(=O)C1(C)CCC(c2ccc(C)cc2)=C(CC(=O)O)C1` (stereo not drawn), in [9], the TGI is more than 100 µM.
